# Results as given in US6573260B1, “Cycloalkyl-substituted aminomethylpyrrolidine derivatives” (Daiichi Pharmaceutical Co., Ltd., priority 1998, dated 2003).
# Read-outs that look alike come from different tables or passages of the source.
# Tests used:
# Assay in all cases: antibacterial activity (MIC), standard method of the Japan Society of Chemotherapy
# Assay type in all cases: cell-based
# E. coli, NIHJ = test system: E. coli, NIHJ
# Procedure: (§1) The antibacterial activity of each compound of the present invention was measured in accordance with the standard method specified by the Japan Society of Chemotherapy, with the results shown in the following Table 2 as MIC values (μg/ml). In this connection, MIC values of levofloxacin (LVFX) and ciprofloxacin (CPEX) are also shown for the sake of comparison with the MIC values of the compounds of the present invention.
# E. faecalis, ATCC 19433 = test system: E. faecalis, ATCC 19433
# Procedure: as §1
# K. pneumoniae TYPE 1 = test system: K. pneumoniae TYPE 1
# Procedure: as §1
# PS. aeruginosa, 32121 = test system: PS. aeruginosa, 32121
# Procedure: as §1
# Pr. vulgaris, 08601 = test system: Pr. vulgaris, 08601
# Procedure: as §1
# Ps. aeruginosa, 32104 = test system: Ps. aeruginosa, 32104
# Procedure: as §1
# S. aureus, 870307 = test system: S. aureus, 870307
# Procedure: as §1
# S. aureus, FDA 209P = test system: S. aureus, FDA 209P
# Procedure: as §1
# S. epidermidis, 56500 = test system: S. epidermidis, 56500
# Procedure: as §1
# S. flexneri, 2A 5503 = test system: S. flexneri, 2A 5503
# Procedure: as §1
# Ser. marcescens, 10100 = test system: Ser. marcescens, 10100
# Procedure: as §1
# Str. pneumoniae, J24 = test system: Str. pneumoniae, J24
# Procedure: as §1
# Str. pyogenes, G-36 = test system: Str. pyogenes, G-36
# Procedure: as §1
# X. maltophilia, IID 1275 = test system: X. maltophilia, IID 1275
# Procedure: as §1
# [1] = Escherichia coli, read-out: MIC
# [2] = Enterococcus faecalis, ATCC19433, read-out: MIC
# [3] = Klebsiella pneumoniae, TYPE1, read-out: MIC
# [4] = Pseudomonas aeruginosa, read-out: MIC
# [5] = Proteus vulgaris, read-out: MIC
# [6] = Staphylococcus aureus, read-out: MIC
# [7] = Staphylococcus aureus, FDA209P, read-out: MIC
# [8] = Staphylococcus epidermidis, read-out: MIC
# [9] = Shigella flexneri, 2A5503, read-out: MIC
# [10] = Serratia marcescens, read-out: MIC
# [11] = Streptococcus pneumoniae, read-out: MIC
# [12] = Streptococcus pyogenes, G36, read-out: MIC
# [13] = Stenotrophomonas maltophilia, IID1275, read-out: MIC
SMILES,"MIC (E. coli, NIHJ)","MIC (E. faecalis, ATCC 19433) [µg/mL]",MIC (K. pneumoniae TYPE 1) [µg/mL],"MIC (PS. aeruginosa, 32121) [µg/mL]","MIC (Pr. vulgaris, 08601) [µg/mL]","MIC (Ps. aeruginosa, 32104) [µg/mL]","MIC (S. aureus, 870307) [µg/mL]","MIC (S. aureus, FDA 209P)","MIC (S. epidermidis, 56500)","MIC (S. flexneri, 2A 5503)","MIC (Ser. marcescens, 10100) [µg/mL]","MIC (Str. pneumoniae, J24)","MIC (Str. pyogenes, G-36)","MIC (X. maltophilia, IID 1275) [µg/mL]","MIC (E. coli, NIHJ; [1]) [µg/mL]","MIC (E. faecalis, ATCC 19433; [2]) [µg/mL]",MIC (K. pneumoniae TYPE 1; [3]) [µg/mL],"MIC (PS. aeruginosa, 32121; [4]) [µg/mL]","MIC (Pr. vulgaris, 08601; [5]) [µg/mL]","MIC (Ps. aeruginosa, 32104; [4]) [µg/mL]",further results
Cc1c(N2CCC(C(N)C3CC3)C2)c(F)c(N)c2c(=O)c(C(=O)O)cn(C3CC3F)c12 (stereo not drawn) [compound 7],≦0.003 μg/ml,0.013,0.025,0.025,0.013,0.05,0.025,≦0.003 μg/ml,≦0.003 μg/ml,≦0.003 μg/ml,0.05,≦0.003 μg/ml,≦0.003 μg/ml,0.05,–,–,–,–,–,–,–
COc1c(N2CCC(C(N)C3CC3)C2)ccc2c(=O)c(C(=O)O)cn(C3CC3)c12 (stereo not drawn) [compound 8],0.006 µg/mL,0.05,0.1,0.2,0.05,0.39,0.2,0.006 µg/mL,0.025 µg/mL,0.1 µg/mL,0.2,0.006 µg/mL,0.013 µg/mL,0.2,–,–,–,–,–,–,–
Nc1c(F)c(N2CCC(C(N)C3CC3)C2)c(F)c2c1c(=O)c(C(=O)O)cn2C1CC1F (stereo not drawn) [compound 5],≦0.003 μg/ml,0.013,0.013,0.025,0.013,0.05,0.025,≦0.003 μg/ml,≦0.003 μg/ml,≦0.003 μg/ml,0.025,≦0.003 μg/ml,≦0.003 μg/ml,0.05,–,–,–,–,–,–,–
"O=C(O)c1cn(C2CC2)c2cc(N3CCNCC3)c(F)cc2c1=O [CPFX, ciprofloxacin, reference compound]",–,–,–,–,–,–,–,–,–,–,–,–,–,–,≤ 0.003,0.78,0.025,0.025,≤ 0.003,0.05,"MIC (S. aureus, 870307; [6]): 3.13 µg/mL; MIC (S. aureus, FDA 209P; [7]): 0.1 µg/mL; MIC (S. epidermidis, 56500; [8]): 0.2 µg/mL; MIC (S. flexneri, 2A 5503; [9]): 0.006 µg/mL; MIC (Ser. marcescens, 10100; [10]): 0.025 µg/mL; MIC (Str. pneumoniae, J24; [11]): 0.1 µg/mL; MIC (Str. pyogenes, G-36; [12]): 1.56 µg/mL; MIC (X. maltophilia, IID 1275; [13]): 0.78 µg/mL"
COc1c(N2CCC(C(N)C3CC3)C2)c(F)cc2c(=O)c(C(=O)O)cn(C3CC3F)c12 (stereo not drawn) [compound 6],≦0.003 μg/ml,0.025,0.05,0.05,0.013,0.1,0.1,≦0.003 μg/ml,0.006 µg/mL,0.006 µg/mL,0.1,≦0.003 μg/ml,≦0.003 μg/ml,0.2,–,–,–,–,–,–,–
"C[C@H]1COc2c(N3CCN(C)CC3)c(F)cc3c(=O)c(C(=O)O)cn1c23 [LVFX, levofloxacin, reference compound]",–,–,–,–,–,–,–,–,–,–,–,–,–,–,0.013,0.78,0.1,0.1,0.13,0.2,"MIC (S. aureus, 870307; [6]): > 6.25 µg/mL; MIC (S. aureus, FDA 209P; [7]): 0.2 µg/mL; MIC (S. epidermidis, 56500; [8]): 0.39 µg/mL; MIC (S. flexneri, 2A 5503; [9]): 0.025 µg/mL; MIC (Ser. marcescens, 10100; [10]): 0.1 µg/mL; MIC (Str. pneumoniae, J24; [11]): 0.78 µg/mL; MIC (Str. pyogenes, G-36; [12]): 0.2 µg/mL; MIC (X. maltophilia, IID 1275; [13]): 0.39 µg/mL"
